Experimental data published in ChEMBL document CHEMBL5465560, “Selectivity Literature for EUbOPEN Chemogenomic Library” (2024).
Blank lines part the entries; values can stand above or below the molecule they belong to.

Legend:
[1] = target: TRAF2 and NCK-interacting protein kinase (Homo sapiens) (UniProt Q9UKE5); conditions: at 10 µM
[2] = target: Tyrosine-protein kinase Fes/Fps (Homo sapiens) (UniProt P07332); test: Selectivity interaction (KinomeScan (DiscoverX)) EUB0001079a FES; conditions: at 1 µM
Chain of Tyrosine-protein kinase Fes/Fps (Homo sapiens) (P07332 whole entry): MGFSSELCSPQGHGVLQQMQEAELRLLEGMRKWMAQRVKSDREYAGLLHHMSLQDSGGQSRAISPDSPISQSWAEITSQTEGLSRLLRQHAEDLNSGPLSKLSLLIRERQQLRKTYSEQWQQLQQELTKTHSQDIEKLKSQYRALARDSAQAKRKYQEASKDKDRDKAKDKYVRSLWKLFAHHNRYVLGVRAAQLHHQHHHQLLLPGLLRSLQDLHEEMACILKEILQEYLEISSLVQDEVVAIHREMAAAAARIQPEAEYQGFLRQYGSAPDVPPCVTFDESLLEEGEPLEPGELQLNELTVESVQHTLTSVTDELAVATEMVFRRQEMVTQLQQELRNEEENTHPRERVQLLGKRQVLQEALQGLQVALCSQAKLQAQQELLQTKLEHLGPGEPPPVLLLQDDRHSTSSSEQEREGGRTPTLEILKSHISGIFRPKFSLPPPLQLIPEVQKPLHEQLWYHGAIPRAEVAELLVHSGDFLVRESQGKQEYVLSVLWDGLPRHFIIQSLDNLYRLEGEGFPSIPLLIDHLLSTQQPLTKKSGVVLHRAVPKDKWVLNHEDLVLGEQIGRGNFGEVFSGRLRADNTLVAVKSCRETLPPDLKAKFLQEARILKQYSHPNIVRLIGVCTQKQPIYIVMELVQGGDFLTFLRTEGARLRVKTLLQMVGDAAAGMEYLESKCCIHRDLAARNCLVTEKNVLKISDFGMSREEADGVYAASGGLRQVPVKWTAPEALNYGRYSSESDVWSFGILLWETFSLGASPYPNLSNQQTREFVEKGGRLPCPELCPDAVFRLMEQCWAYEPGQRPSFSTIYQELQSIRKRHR

[3] = target: Serine/threonine-protein kinase pim-1 (Homo sapiens, UniProt P11309); test: Selectivity interaction (KinomeScan (DiscoverX)) EUB0000618a PIM1; conditions: at 10 µM
Chain of Serine/threonine-protein kinase pim-1 (P11309 whole entry, looked up): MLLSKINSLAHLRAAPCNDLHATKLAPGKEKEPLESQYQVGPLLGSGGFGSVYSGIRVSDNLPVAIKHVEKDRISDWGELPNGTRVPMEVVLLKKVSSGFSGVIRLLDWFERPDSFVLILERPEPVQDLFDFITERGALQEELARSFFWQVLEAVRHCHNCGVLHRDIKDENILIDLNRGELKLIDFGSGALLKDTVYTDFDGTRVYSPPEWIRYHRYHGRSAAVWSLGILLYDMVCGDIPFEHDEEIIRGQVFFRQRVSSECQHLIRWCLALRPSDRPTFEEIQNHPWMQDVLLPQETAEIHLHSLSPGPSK

[4] = target: Tyrosine-protein kinase HCK (Homo sapiens) (UniProt P08631); test: Selectivity interaction (ActivX KiNativ screen (kinase selectivity in THP-1 cell lysates)) EUB0000639a HCK; type: subcellular; conditions: lysate, at 1 µM
Chain of Tyrosine-protein kinase HCK (Homo sapiens) (P08631 2-526 limits assumed): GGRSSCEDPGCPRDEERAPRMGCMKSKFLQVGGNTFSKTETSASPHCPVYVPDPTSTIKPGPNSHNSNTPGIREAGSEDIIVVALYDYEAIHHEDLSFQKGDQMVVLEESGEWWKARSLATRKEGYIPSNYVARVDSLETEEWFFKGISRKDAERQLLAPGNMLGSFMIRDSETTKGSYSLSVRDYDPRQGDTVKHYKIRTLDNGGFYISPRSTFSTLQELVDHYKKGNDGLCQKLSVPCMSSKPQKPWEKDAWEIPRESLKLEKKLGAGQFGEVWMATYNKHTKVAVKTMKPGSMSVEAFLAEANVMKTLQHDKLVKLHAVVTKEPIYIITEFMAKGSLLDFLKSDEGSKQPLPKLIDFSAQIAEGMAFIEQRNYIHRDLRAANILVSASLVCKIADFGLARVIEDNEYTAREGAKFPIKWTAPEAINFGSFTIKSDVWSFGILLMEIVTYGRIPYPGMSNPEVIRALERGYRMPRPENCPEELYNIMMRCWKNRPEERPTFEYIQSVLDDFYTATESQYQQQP

[5] = target: Serine/threonine-protein kinase pim-2 (Homo sapiens, UniProt Q9P1W9); test: Selectivity interaction (KinomeScan (DiscoverX)) EUB0001049a PIM2; conditions: at 1 µM
Chain of Serine/threonine-protein kinase pim-2 (Q9P1W9 whole entry, looked up): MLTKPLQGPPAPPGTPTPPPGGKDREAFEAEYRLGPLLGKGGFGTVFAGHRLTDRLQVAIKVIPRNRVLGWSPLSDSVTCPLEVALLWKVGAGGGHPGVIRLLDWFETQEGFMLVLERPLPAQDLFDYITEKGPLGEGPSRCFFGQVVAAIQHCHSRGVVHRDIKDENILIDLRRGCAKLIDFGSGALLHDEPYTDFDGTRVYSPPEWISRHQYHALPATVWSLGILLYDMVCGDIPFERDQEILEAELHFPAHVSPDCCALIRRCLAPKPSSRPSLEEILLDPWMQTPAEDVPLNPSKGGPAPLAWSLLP

[6] = target: High affinity nerve growth factor receptor (Homo sapiens, UniProt P04629); test: Selectivity interaction (KinomeScan (DiscoverX)) EUB0000666a NTRK1; conditions: at 10 µM
Chain of High affinity nerve growth factor receptor (P04629 33-796 limits assumed): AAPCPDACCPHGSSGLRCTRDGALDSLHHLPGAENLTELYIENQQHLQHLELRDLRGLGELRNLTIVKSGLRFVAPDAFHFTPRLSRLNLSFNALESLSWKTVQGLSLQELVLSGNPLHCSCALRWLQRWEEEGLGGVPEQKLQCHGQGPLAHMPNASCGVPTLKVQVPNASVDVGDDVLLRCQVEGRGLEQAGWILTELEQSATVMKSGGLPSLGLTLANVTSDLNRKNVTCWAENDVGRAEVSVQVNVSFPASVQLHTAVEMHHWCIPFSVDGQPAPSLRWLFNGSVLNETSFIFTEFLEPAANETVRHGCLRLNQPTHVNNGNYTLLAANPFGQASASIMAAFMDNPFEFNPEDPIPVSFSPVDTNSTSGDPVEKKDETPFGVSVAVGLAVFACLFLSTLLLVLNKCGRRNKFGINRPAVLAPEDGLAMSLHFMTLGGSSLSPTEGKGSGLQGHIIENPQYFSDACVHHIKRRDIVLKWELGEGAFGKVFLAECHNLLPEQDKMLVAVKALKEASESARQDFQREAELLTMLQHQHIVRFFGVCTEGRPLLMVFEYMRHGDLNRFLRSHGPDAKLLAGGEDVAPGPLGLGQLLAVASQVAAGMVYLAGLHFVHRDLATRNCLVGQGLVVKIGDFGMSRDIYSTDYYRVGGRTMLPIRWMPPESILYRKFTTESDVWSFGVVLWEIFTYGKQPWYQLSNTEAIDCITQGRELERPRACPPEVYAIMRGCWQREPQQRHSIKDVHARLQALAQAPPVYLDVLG

[7] = target: T1, Serine/threonine-protein kinase LATS2 (Homo sapiens) (UniProt Q9NRM7); test: Selectivity interaction (KinomeScan (DiscoverX)) EUB0000092b LATS2; conditions: at 10 µM
T1 sequence (whole entry): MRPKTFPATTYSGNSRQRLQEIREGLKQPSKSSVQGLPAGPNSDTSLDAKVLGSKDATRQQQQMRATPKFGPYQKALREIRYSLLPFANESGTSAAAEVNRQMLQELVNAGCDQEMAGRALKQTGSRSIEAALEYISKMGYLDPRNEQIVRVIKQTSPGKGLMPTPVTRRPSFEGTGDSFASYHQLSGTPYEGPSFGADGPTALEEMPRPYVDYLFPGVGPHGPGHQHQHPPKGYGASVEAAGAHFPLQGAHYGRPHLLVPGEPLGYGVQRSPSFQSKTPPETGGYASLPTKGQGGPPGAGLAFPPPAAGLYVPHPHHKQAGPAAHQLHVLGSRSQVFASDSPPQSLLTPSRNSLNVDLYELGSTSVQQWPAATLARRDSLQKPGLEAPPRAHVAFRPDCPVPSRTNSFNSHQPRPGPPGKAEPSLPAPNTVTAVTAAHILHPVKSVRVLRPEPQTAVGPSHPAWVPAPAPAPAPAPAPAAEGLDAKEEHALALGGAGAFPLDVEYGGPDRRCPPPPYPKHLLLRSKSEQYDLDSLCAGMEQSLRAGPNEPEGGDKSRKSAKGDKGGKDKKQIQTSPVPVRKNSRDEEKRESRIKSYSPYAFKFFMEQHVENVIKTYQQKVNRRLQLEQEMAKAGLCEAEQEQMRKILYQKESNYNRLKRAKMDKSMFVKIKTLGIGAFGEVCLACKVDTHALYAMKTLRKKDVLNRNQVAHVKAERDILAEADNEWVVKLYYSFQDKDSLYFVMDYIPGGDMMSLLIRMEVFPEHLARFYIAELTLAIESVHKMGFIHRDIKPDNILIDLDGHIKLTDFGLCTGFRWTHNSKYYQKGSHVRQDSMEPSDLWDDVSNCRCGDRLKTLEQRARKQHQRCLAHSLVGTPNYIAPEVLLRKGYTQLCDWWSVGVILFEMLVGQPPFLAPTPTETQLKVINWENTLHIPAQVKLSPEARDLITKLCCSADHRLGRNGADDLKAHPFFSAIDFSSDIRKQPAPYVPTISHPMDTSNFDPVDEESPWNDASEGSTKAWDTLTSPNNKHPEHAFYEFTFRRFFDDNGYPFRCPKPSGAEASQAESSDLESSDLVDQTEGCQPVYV

[8] = target: Tyrosine-protein kinase receptor UFO (Homo sapiens) (UniProt P30530); test: Selectivity interaction (Kinase panel (Z-LYTE Assay)) EUB0001632a AXL; conditions: at 10 µM
Chain of Tyrosine-protein kinase receptor UFO (Homo sapiens) (P30530 whole entry): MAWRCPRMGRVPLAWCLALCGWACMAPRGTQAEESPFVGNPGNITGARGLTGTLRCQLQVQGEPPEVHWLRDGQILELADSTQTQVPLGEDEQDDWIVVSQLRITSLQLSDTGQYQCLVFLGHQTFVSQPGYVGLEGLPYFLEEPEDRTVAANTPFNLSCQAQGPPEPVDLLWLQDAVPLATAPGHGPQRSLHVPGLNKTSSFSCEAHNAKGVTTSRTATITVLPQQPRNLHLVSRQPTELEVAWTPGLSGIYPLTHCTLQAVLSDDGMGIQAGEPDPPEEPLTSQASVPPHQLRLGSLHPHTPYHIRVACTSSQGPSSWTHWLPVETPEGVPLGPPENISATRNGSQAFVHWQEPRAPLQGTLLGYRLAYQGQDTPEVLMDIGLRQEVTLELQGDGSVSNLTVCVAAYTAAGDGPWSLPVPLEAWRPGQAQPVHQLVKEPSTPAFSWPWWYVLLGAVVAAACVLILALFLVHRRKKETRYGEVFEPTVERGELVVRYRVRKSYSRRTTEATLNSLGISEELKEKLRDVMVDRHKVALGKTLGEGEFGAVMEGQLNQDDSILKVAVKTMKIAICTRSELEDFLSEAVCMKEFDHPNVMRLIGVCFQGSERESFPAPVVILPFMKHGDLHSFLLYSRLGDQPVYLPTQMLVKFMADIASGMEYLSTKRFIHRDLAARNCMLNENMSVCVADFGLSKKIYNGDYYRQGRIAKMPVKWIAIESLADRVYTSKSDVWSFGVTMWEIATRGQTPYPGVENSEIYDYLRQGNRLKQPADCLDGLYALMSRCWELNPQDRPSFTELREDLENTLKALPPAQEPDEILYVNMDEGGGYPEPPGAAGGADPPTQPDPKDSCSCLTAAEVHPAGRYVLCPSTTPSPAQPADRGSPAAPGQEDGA

[9] = target: T2, Serine/threonine-protein kinase D2 (Homo sapiens) (UniProt Q9BZL6); test: Selectivity interaction (KinomeScan (DiscoverX)) EUB0000695a PRKD2; conditions: at 100 nM
T2 sequence (whole entry): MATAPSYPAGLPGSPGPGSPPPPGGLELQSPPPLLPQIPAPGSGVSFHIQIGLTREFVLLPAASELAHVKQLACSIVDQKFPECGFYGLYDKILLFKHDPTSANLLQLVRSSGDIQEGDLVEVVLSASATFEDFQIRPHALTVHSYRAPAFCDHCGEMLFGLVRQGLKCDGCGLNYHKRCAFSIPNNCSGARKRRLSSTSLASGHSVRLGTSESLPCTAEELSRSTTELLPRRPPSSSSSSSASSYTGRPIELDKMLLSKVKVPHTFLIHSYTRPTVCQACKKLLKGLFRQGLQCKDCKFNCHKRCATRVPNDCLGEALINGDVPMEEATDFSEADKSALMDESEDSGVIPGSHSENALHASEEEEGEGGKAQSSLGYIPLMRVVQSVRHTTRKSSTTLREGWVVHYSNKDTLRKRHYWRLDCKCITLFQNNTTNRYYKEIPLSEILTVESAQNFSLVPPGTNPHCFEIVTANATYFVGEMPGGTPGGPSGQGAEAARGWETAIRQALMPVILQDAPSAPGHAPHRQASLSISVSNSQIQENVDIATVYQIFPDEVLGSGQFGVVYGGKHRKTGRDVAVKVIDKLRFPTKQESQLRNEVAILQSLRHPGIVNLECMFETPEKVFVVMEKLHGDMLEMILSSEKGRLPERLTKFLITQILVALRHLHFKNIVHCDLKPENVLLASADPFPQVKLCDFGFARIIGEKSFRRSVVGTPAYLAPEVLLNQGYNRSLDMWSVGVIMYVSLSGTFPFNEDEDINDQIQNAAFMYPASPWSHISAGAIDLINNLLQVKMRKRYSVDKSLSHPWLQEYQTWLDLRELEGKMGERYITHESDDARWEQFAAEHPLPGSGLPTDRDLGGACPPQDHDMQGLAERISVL

Chain of TRAF2 and NCK-interacting protein kinase (Homo sapiens) (Q9UKE5 whole entry, looked up): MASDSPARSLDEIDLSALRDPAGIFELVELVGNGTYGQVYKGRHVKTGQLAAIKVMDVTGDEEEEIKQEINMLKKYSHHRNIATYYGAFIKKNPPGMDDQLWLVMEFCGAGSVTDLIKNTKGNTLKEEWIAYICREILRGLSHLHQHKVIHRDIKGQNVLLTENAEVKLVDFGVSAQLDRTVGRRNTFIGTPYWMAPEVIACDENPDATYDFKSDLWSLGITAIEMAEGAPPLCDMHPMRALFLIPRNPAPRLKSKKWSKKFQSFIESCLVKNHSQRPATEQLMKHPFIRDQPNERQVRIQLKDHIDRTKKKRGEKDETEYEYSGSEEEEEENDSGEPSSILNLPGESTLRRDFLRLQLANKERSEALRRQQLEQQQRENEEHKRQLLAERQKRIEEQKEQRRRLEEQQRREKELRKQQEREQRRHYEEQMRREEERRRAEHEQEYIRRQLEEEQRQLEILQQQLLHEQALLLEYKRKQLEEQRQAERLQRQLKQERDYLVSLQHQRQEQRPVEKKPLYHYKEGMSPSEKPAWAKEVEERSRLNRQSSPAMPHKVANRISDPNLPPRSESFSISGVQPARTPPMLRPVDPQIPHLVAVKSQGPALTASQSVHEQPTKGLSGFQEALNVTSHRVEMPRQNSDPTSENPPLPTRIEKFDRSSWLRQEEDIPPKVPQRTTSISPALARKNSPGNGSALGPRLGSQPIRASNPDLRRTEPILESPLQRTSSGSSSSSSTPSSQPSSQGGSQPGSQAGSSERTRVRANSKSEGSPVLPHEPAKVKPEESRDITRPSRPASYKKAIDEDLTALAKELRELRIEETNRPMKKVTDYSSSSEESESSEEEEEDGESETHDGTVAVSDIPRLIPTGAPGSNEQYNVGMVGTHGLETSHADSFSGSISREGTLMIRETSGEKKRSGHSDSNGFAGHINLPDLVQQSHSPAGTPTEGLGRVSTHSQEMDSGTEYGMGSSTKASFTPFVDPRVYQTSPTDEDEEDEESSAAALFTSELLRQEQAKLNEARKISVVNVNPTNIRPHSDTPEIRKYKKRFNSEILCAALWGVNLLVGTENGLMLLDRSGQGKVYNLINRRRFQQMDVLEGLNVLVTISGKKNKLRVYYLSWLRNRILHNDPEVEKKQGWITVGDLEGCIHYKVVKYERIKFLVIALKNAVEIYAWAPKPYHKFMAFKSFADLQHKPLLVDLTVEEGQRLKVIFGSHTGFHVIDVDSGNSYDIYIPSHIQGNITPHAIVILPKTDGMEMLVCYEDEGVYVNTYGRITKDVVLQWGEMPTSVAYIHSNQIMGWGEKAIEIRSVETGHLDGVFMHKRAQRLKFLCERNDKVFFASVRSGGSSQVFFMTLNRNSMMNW

% of control [1]: 100%
Structure (SMILES): CCN(CC)CCCCNc1ncc2cc(-c3cc(OC)cc(OC)c3)c(NC(=O)NC(C)(C)C)nc2n1

Structure (SMILES): Nc1cnc(N2CCc3cc(S(=O)(=O)Nc4c(F)cc(Cl)cc4F)cc(N4CCCC4=O)c32)nc1 [TP-020n]
% of control [2]: 100%

Structure (SMILES): O[C@H]1CC[C@H](Nc2ncc3nc(Nc4c(F)cc(F)cc4F)n([C@H]4CCOC4)c3n2)CC1
% of control [3]: 100%

% of inhibition [4]: -16.5%
Structure (SMILES): CC[C@@H]1[C@H](F)C(=O)N[C@@H]1COc1nccc2cc(C(N)=O)c(OC)cc12 [ZIMLOVISERTIB]

Structure (SMILES): COc1cc(Nc2nc(C)cc(-c3cnn4nc(OC)ccc34)n2)cc(C(F)(F)F)c1
% of control [5]: 95%

Structure (SMILES): O=C(NOC[C@H](O)CO)c1ccc(F)c(F)c1Nc1ccc(I)cc1F
% of control [6]: 100%

Structure (SMILES): CCC(=O)N1CCN(c2ccc(-n3c(=O)ccc4cnc5ccc(-c6cnc7ccccc7c6)cc5c43)cc2C(F)(F)F)CC1
% of control [7]: 100%

% of control [8]: 2.06%
Structure (SMILES): Cn1cc(-n2cnc3c(NCc4nc5cc(Cl)c(Cl)cc5[nH]4)nc(N4CCOCC4)nc32)cn1

Structure (SMILES): Cc1cc(F)c(C(=O)Nc2cccc(-c3nncn3C(C)C)n2)cc1-n1cnc(C2CC2)c1
% of control [9]: 58%
